This is an account of results in US20130217694A1, “METHOD OF REDUCING THE SEVERITY OF INFLAMMATORY DERMATOLOGICAL CONDITIONS” (Allergan, Inc.., priority 2003, published 2013).

Structures are written as SMILES. “Also recorded” adds a separate entry of the source.

Assay [1] relates to mice. The experiment in a line: Sulprostone-induced tactile hypersensitivity in mice. In kind it is in vivo, mouse. Conditions: for analgesic activity in sulprostone-induced tactile hypersensitivity: result in words. Here is the method:
The activity of a synthetic EP1/EP3 receptor-selective prostaglandin agonist, sulprostone, also was assayed.
(§1) Spinal drug injections were performed as follows. […] Briefly, a sterile 30-gauge ½ inch needle attached to a microsyringe was inserted between the L5 and L6 vertebrae. The mouse was held firmly by the pelvic girdle in one hand, while the syringe was held in the other hand at an angle of approximately 20° above the vertebral column. The needle was inserted into the tissue to one side of the L6 spinous process, into the groove between the spinous and transverse processes. The needle angle was decreased to about 10°, and the needle slowly advanced forward into the intervertebral space until a pop was felt and there was a visible serpentine tail movement. Compounds were slowly injected in the subarachnoid space in a volume of 5 μl. Each compound was tested at multiple doses. The minimal efficacious dose was used for all subsequent experiments.
(§2) Sensitivity to light touch was quantified by scoring the response of mice to light stroking of their flanks with a small paintbrush, which is not normally painful. […] Statistical calculations of significance for in vivo studies were done using a two-tailed Students t-test.

Assay [2] has as its system mice. The experiment in a line: NMDA-induced tactile hypersensitivity in mice. In kind it is in vivo, mouse. Conditions: result in words. How it is done:
as §1, §2

In assay [3] the target is T1, human α-2C receptor (Homo sapiens, UniProt P18825).
T1 construct: expressed in transfected cells; host or cells: PC12 cells (retroviral vector pCL BABE Puro)
T1 sequence (P18825 1-462): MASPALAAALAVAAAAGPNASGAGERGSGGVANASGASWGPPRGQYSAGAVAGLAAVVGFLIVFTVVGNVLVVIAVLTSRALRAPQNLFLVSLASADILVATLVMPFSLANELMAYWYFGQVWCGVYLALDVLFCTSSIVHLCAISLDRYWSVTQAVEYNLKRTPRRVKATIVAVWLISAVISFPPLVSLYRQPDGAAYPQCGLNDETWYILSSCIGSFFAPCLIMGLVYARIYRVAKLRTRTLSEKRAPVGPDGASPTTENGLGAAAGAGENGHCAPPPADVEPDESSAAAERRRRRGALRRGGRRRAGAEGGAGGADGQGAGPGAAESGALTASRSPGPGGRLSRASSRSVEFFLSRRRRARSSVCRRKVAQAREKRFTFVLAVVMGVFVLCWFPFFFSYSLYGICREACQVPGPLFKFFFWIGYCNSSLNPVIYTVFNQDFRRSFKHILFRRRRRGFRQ
As to the kind of experiment: Inhibition of forskolin-induced cAMP accumulation in PC12 cells expressing human α-2C receptor. Conditions: percent efficacy relative to brimonidine. The assay is classed as cell-based. How it is done:
The human α-2A and α-2C receptor supernatants were added, in varying amounts, to naive PC12 cells, which were then incubated for 48 hours. The transduced cell populations were replated at a lower density and grown in media containing 100 ug/ml puromycin.
Intracellular cAMP measurement was performed as follows. PC12 cells stably expressing the human α-2A or human α-2C adrenergic receptors were plated in 96-well poly-D-lysine coated plates at a density of 30,000 cells per well in 100 μl DMEM supplemented with 10% horse serum, 5% heat inactivated fetal bovine serum, 1% antibiotic-antimycotic and 100 μg/ml puromycin. Cells were grown overnight at 37° C. and 5% CO2. Cells were dosed by adding an equal volume of media containing IBMX (to a final concentration of 1 mM), forskolin (to a final concentration of 10 μM) and the appropriate drug dilution (to a final concentration of between 10^−5 M and 10^−12 M). After a 10 minute incubation, the media was aspirated and the cells lysed with 200 μl lysis buffer (Amersham Biosciences; Piscataway, N.J.). Plates were stored at −20° C. for up to 24 hours prior to assay. Intracellular cAMP was determined using the Biotrak cAMP enzyme immunoassay system (Amersham Biosciences) according to the manufacturer's instructions. Plates were read on a plate reader at 450 nm.

Assay [4] has as its target T2, bovine α-1A adrenergic receptor (Bos taurus, UniProt P18130).
T2 sequence (P18130 1-466): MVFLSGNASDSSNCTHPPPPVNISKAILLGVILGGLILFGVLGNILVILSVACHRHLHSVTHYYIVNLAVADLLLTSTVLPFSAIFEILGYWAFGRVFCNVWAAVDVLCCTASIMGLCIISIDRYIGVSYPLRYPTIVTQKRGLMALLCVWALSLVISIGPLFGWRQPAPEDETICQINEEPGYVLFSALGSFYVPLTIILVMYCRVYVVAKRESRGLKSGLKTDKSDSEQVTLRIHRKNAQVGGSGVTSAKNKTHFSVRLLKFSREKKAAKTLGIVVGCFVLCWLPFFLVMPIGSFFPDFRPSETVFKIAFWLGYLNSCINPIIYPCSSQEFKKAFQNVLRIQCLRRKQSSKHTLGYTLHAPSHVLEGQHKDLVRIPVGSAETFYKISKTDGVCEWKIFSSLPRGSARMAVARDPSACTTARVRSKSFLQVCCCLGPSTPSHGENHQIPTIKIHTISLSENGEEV
As to the kind of experiment: Intracellular Ca+2 response in HEK293 cells expressing bovine α-1A receptor. The assay is classed as cell-based. Conditions: for bovine α1A % E: percent efficacy relative to phenylephrine; for agonist activity at the α-1A receptor: result in words. Here is the method:
The bovine α-1A and hamster α-1B receptor supernatants were added, in varying amounts, to naive HEK293 cells, which were then incubated for 48 hours. The transduced cell populations were replated at a lower density and grown in media containing 0.25 ug/ml puromycin. […] Receptor density was measured in a prazosin radioligand binding assay.
Intracellular Ca^+2 responses were measured as follows in HEK293 cells stably expressing either the bovine α-1A or hamster α-1B adrenergic receptor. Between 40,000 to 50,000 cells were plated per well in 96-well poly-D-lysine coated plates in 0.2 ml DMEM containing 10% heat-inactivated fetal calf serum, 1% antibiotic-antimycotic and 0.25 μg/ml puromycin one day prior to use. Cells were washed twice with HBSS supplemented with 10 mM HEPES, 2.0 mM CaCl2 and 2.5 mM probenicid, and subsequently incubated at 37° C. for 60 minutes with 4 μM Fluo-4 (Molecular Probes; Eugene, Oreg.). The extracellular dye was washed from the plates twice prior to placing the plates in the fluorometric imaging plate reader (FLIPR; Molecular Devices; Sunnyvale, Calif.). Ligands were diluted in HBSS and aliquoted into a 96-well microplate. Drugs were tested over the concentration range of 0.64 nM to 10,000 nM. Data for Ca^+2 responses were obtained in arbitrary fluorescence units.

Consider `Brc1c(NC2=NCCN2)ccc2nccnc12` [Brimonidine, 5-bromo-6-(2-imidazolin-2-ylamino)quinoxaline], for which the “analgesic activity in sulprostone-induced tactile hypersensitivity” value in assay [1] (wildtype mice) was “analgesic”; in assay [1] (α-2A knockout mice) it was “neither clonidine nor brimonidine were analgesic”; in assay [1] (α-2C knockout mice) it was “analgesic”. For the same compound, the figures for the “inhibition of NMDA-induced tactile hypersensitivity” value in assay [2] (wildtype mice), in assay [2] (α-2A knockout mice) and in assay [2] (α-2C knockout mice) were “complete inhibition of tactile hypersensitivity”, “neither clonidine nor brimonidine inhibited” and “complete inhibition of tactile hypersensitivity”, respectively. In assay [3], the “human α2C % E” value worked out at 93%. Besides, in assay [4], the “bovine α1A % E” value is 15%. For the same compound, the “agonist activity at the α-1A receptor” value in assay [4] is listed as “weak activity”.

For the compound `Clc1cccc(Cl)c1N=C1NCCN1` [Clonidine], the figures for the “analgesic activity in sulprostone-induced tactile hypersensitivity” value in assay [1] (wildtype mice), in assay [1] (α-2A knockout mice) and in assay [1] (α-2C knockout mice) were “analgesic in wildtype mice; also recorded: analgesic in wild type mice”, “not in α-2A or α-2C knockout mice; also recorded: neither clonidine nor brimonidine were analgesic” and “not in α-2A or α-2C knockout mice; also recorded: not in α-2C knockout mice”, respectively. Moreover, the “analgesic activity of clonidine co-administered with prazosin” value in assay [1] (α-2C knockout mice, prazosin 100 ng/kg i.p., clonidine 400 ng i.t., sulprostone 200 ng i.t.) is reported as “restore the analgesic activity”. Moreover, the “inhibition of NMDA-induced tactile hypersensitivity” value in assay [2] (wildtype mice) is reported as “complete inhibition of tactile hypersensitivity”; in assay [2] (α-2A knockout mice) it was “neither clonidine nor brimonidine inhibited”; in assay [2] (α-2C knockout mice), “complete inhibition of tactile hypersensitivity”. Moreover, in assay [3], the “human α2C % E” value stood at 84%. In assay [4], the “bovine α1A % E” value worked out at 62%. Moreover, in assay [4], the “agonist activity at the α-1A receptor” value is “partial agonists”.
